Assay [1] concerns the target Peptidyl-prolyl cis-trans isomerase A (Homo sapiens, UniProt P62937). As to the kind of experiment: Immunosuppressive activity was measured by inhibition of the IL-2 production in Jurkat cells. The class given is functional, cell-based.
In assay [2] the target is Human immunodeficiency virus type 1 reverse transcriptase (Human immunodeficiency virus 1, UniProt Q72547). Kind of assay: In vitro inhibitory activity against HIV-1 RT in CEM4 cell line. The class given is cell-based.

Chain of Peptidyl-prolyl cis-trans isomerase A (P62937 whole entry): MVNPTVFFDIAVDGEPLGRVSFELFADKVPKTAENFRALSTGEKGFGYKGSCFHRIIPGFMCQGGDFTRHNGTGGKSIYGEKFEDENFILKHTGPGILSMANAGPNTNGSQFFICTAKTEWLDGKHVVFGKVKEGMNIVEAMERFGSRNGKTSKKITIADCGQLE

On to `C/C=C/C[C@@H](C)[C@@H](O)[C@H]1C(=O)N[C@@H](CC)C(=O)N(C)[C@H](SCCN(C)C(C)(C)C)C(=O)N(C)[C@@H](CC(C)(C)O)C(=O)N[C@@H](C(C)C)C(=O)N(C)[C@@H](CC(C)C)C(=O)N[C@@H](C)C(=O)N[C@H](C)C(=O)N(C)[C@@H](CC(C)C)C(=O)N(C)[C@@H](CC(C)C)C(=O)N(C)[C@@H](C(C)C)C(=O)N1C`, for which the figures for the IC50 in assay [1] and in assay [2] were 1570 nM and 43 nM, respectively.

Regarding `C/C=C/C[C@@H](C)[C@@H](O)[C@H]1C(=O)N[C@@H](CC)C(=O)N(C)[C@H](SCCO)C(=O)N(C)[C@@H](CC(C)C)C(=O)N[C@@H](C(C)C)C(=O)N(C)[C@@H](CC(C)C)C(=O)N[C@@H](C)C(=O)N[C@H](C)C(=O)N(C)[C@@H](CC(C)C)C(=O)N(C)[C@@H](CC(C)C)C(=O)N(C)[C@@H](C(C)C)C(=O)N1C`, the figures for the IC50 in assay [1] and in assay [2] were 19 nM and 70 nM, respectively.

With `C/C=C/C[C@@H](C)[C@@H](O)[C@H]1C(=O)N[C@@H](CC)C(=O)N(C)[C@H](SC)C(=O)N(C)[C@@H](CC(C)C)C(=O)N[C@@H](C(C)C)C(=O)N(C)[C@@H](CC(C)C)C(=O)N[C@@H](C)C(=O)N[C@H](C)C(=O)N(C)[C@@H](CC(C)C)C(=O)N(C)[C@@H](CC(C)C)C(=O)N(C)[C@@H](C(C)C)C(=O)N1C`, the IC50 in assay [1] was 3 nM; in assay [2], 65.5 nM.

In assay [2], `C/C=C/C[C@@H](C)[C@@H](O)C1C(=O)N[C@@H](CC)C(=O)N(C)CC(=O)N(C)[C@@H](CC(C)(C)O)C(=O)N[C@@H](C(C)C)C(=O)N(C)[C@@H](CC(C)C)C(=O)N[C@@H](C)C(=O)N[C@H](C)C(=O)N(C)[C@@H](CC(C)C)C(=O)N(C)[C@@H](CC(C)C)C(=O)N(C)[C@@H](C(C)C)C(=O)N1C` (stereo not given in full) had an IC50 of 138 nM. In other words, the sub-micromolar range.

As to `C/C=C/C[C@@H](C)[C@@H](O)[C@H]1C(=O)N[C@@H](CC)C(=O)N(C)[C@H](SCCN(CC)CC)C(=O)N(C)[C@@H](CC(C)C)C(=O)N[C@@H](C(C)C)C(=O)N(C)[C@@H](CC(C)C)C(=O)N[C@@H](C)C(=O)N[C@H](C)C(=O)N(C)[C@@H](CC(C)C)C(=O)N(C)[C@@H](CC(C)C)C(=O)N(C)[C@@H](C(C)C)C(=O)N1C`, the half-maximal inhibitory concentration (IC50) in assay [1] came to 15 nM; in assay [2] it was 2.5 nM.

Take `C/C=C/C[C@@H](C)[C@@H](O)[C@H]1C(=O)N[C@@H](CC)C(=O)N(C)[C@H](SCCN2CCCCC2)C(=O)N(C)[C@@H](CC(C)(C)O)C(=O)N[C@@H](C(C)C)C(=O)N(C)[C@@H](CC(C)C)C(=O)N[C@@H](C)C(=O)N[C@H](C)C(=O)N(C)[C@@H](CC(C)C)C(=O)N(C)[C@@H](CC(C)C)C(=O)N(C)[C@@H](C(C)C)C(=O)N1C`: the figures for the IC50 in assay [1] and in assay [2] were 882 nM and 19.5 nM, respectively.

`C/C=C/C[C@@H](C)[C@@H](O)[C@H]1C(=O)N[C@@H](CC)C(=O)N(C)[C@H](SCCO)C(=O)N(C)[C@@H](CC(C)(C)O)C(=O)N[C@@H](C(C)C)C(=O)N(C)[C@@H](CC(C)C)C(=O)N[C@@H](C)C(=O)N[C@H](C)C(=O)N(C)[C@@H](CC(C)C)C(=O)N(C)[C@@H](CC(C)C)C(=O)N(C)[C@@H](C(C)C)C(=O)N1C`: the IC50 amounted to 959 nM in assay [1] and 80 nM in assay [2].

With `C/C=C/C[C@@H](C)[C@@H](O)[C@H]1C(=O)N[C@@H](CC)C(=O)N(C)CC(=O)N(C)[C@@H](C[C@@H](C)CC)C(=O)N[C@@H](C(C)C)C(=O)N(C)[C@@H](CC(C)C)C(=O)N[C@@H](C)C(=O)N[C@H](C)C(=O)N(C)[C@@H](CC(C)C)C(=O)N(C)[C@@H](CC(C)C)C(=O)N(C)[C@@H](C(C)C)C(=O)N1C`, the IC50 in assay [1] stood at 934 nM; in assay [2], 293 nM.

Regarding `C/C=C/C[C@@H](C)[C@@H](O)[C@H]1C(=O)N[C@@H](CC)C(=O)N(C)[C@H](SCCN(C)C(C)C)C(=O)N(C)[C@@H](CC(C)C)C(=O)N[C@@H](C(C)C)C(=O)N(C)[C@@H](CC(C)C)C(=O)N[C@@H](C)C(=O)N[C@H](C)C(=O)N(C)[C@@H](CC(C)C)C(=O)N(C)[C@@H](CC(C)C)C(=O)N(C)[C@@H](C(C)C)C(=O)N1C`, the half-maximal inhibitory concentration (IC50) in assay [1] is 61 nM; in assay [2], 19.5 nM.

For `C/C=C/C[C@@H](C)[C@@H](O)C1C(=O)N[C@@H](CC)C(=O)N(C)[C@H](CO)C(=O)N(C)[C@@H](CC(C)(C)O)C(=O)N[C@@H](C(C)C)C(=O)N(C)[C@@H](CC(C)C)C(=O)N[C@@H](C)C(=O)N[C@H](C)C(=O)N(C)[C@@H](CC(C)C)C(=O)N(C)[C@@H](CC(C)C)C(=O)N(C)[C@@H](C(C)C)C(=O)N1C` (stereo not given in full), in assay [2], the IC50 worked out at 95 nM.

With `C/C=C/C[C@@H](C)[C@@H](O)[C@H]1C(=O)N[C@@H](CC)C(=O)N(C)[C@H](SCCN(C)C)C(=O)N(C)[C@@H](CC(C)(C)O)C(=O)N[C@@H](C(C)C)C(=O)N(C)[C@@H](CC(C)C)C(=O)N[C@@H](C)C(=O)N[C@H](C)C(=O)N(C)[C@@H](CC(C)C)C(=O)N(C)[C@@H](CC(C)C)C(=O)N(C)[C@@H](C(C)C)C(=O)N1C` [SCY 635], the IC50 in assay [2] was 45 nM.

Regarding `C/C=C/C[C@@H](C)[C@@H](O)[C@H]1C(=O)N[C@@H](CC)C(=O)N(C)[C@H](SCCN2CCCCC2)C(=O)N(C)[C@@H](CC(C)C)C(=O)N[C@@H](C(C)C)C(=O)N(C)[C@@H](CC(C)C)C(=O)N[C@@H](C)C(=O)N[C@H](C)C(=O)N(C)[C@@H](CC(C)C)C(=O)N(C)[C@@H](CC(C)C)C(=O)N(C)[C@@H](C(C)C)C(=O)N1C`, the IC50 turned out to be 97 nM in assay [1] and 72 nM in assay [2].

On to `C/C=C/C[C@@H](C)[C@@H](O)[C@H]1C(=O)N[C@@H](CC)C(=O)N(C)[C@H](SCCN(C)C(C)(C)C)C(=O)N(C)[C@@H](CC(C)C)C(=O)N[C@@H](C(C)C)C(=O)N(C)[C@@H](CC(C)C)C(=O)N[C@@H](C)C(=O)N[C@H](C)C(=O)N(C)[C@@H](CC(C)C)C(=O)N(C)[C@@H](CC(C)C)C(=O)N(C)[C@@H](C(C)C)C(=O)N1C`, for which the 50% inhibitory concentration (IC50) was determined as 277 nM in assay [1] and 24 nM in assay [2].

As for `C/C=C/C[C@@H](C)[C@@H](O)[C@H]1C(=O)N[C@@H](CC)C(=O)N(C)[C@H](SCCN(C)C)C(=O)N(C)[C@@H](CC(C)C)C(=O)N[C@@H](C(C)C)C(=O)N(C)[C@@H](CC(C)C)C(=O)N[C@@H](C)C(=O)N[C@H](C)C(=O)N(C)[C@@H](CC(C)C)C(=O)N(C)[C@@H](CC(C)C)C(=O)N(C)[C@@H](C(C)C)C(=O)N1C`, the IC50 worked out at 47 nM in assay [1] and 35 nM in assay [2].

`C/C=C/C[C@@H](C)[C@@H](O)[C@H]1C(=O)N[C@@H](CC)C(=O)N(C)[C@H](CO)C(=O)N(C)[C@@H](CC(C)(C)O)C(=O)N[C@@H](C(C)C)C(=O)N(C)[C@@H](CC(C)C)C(=O)N[C@@H](C)C(=O)N[C@H](C)C(=O)N(C)[C@@H](CC(C)C)C(=O)N(C)[C@@H](CC(C)C)C(=O)N(C)[C@@H](C(C)C)C(=O)N1C` returned an IC50 in assay [1] of 783 nM.

In turn, `C/C=C/C[C@@H](C)[C@@H](O)[C@H]1C(=O)N[C@@H](CC)C(=O)N(C)CC(=O)N(C)[C@@H](CC(C)(C)O)C(=O)N[C@@H](C(C)C)C(=O)N(C)[C@@H](CC(C)C)C(=O)N[C@@H](C)C(=O)N[C@H](C)C(=O)N(C)[C@@H](CC(C)C)C(=O)N(C)[C@@H](CC(C)C)C(=O)N(C)[C@@H](C(C)C)C(=O)N1C` yielded an IC50 in assay [1] of 166 nM. Against the preceding molecule, the IC50 is about 4.7-fold lower.

For `C/C=C/C[C@@H](C)[C@@H](O)[C@H]1C(=O)N[C@@H](CC)C(=O)N(C)[C@H](SCCn2ccnc2)C(=O)N(C)[C@@H](CC(C)C)C(=O)N[C@@H](C(C)C)C(=O)N(C)[C@@H](CC(C)C)C(=O)N[C@@H](C)C(=O)N[C@H](C)C(=O)N(C)[C@@H](CC(C)C)C(=O)N(C)[C@@H](CC(C)C)C(=O)N(C)[C@@H](C(C)C)C(=O)N1C`, the values for the IC50 in assay [1] and in assay [2] were 165 nM and 80.5 nM, respectively.

On to `C/C=C/C[C@@H](C)[C@@H](O)[C@H]1C(=O)N[C@@H](CC)C(=O)N(C)[C@H](SCCN2CCOCC2)C(=O)N(C)[C@@H](CC(C)C)C(=O)N[C@@H](C(C)C)C(=O)N(C)[C@@H](CC(C)C)C(=O)N[C@@H](C)C(=O)N[C@H](C)C(=O)N(C)[C@@H](CC(C)C)C(=O)N(C)[C@@H](CC(C)C)C(=O)N(C)[C@@H](C(C)C)C(=O)N1C`, for which the IC50 in assay [1] came to 128 nM; in assay [2], 101 nM.

`C/C=C/C[C@@H](C)[C@@H](O)[C@H]1C(=O)N[C@@H](CC)C(=O)N(C)[C@H](SC)C(=O)N(C)[C@@H](CC(C)(C)O)C(=O)N[C@@H](C(C)C)C(=O)N(C)[C@@H](CC(C)C)C(=O)N[C@@H](C)C(=O)N[C@H](C)C(=O)N(C)[C@@H](CC(C)C)C(=O)N(C)[C@@H](CC(C)C)C(=O)N(C)[C@@H](C(C)C)C(=O)N1C`: the half-inhibitory concentration (IC50) is 110 nM in assay [1] and 84 nM in assay [2].

With `C/C=C/C[C@@H](C)[C@@H](O)[C@H]1C(=O)N[C@@H](CC)C(=O)N(C)[C@H](SCCN(CC)CC)C(=O)N(C)[C@@H](CC(C)(C)O)C(=O)N[C@@H](C(C)C)C(=O)N(C)[C@@H](CC(C)C)C(=O)N[C@@H](C)C(=O)N[C@H](C)C(=O)N(C)[C@@H](CC(C)C)C(=O)N(C)[C@@H](CC(C)C)C(=O)N(C)[C@@H](C(C)C)C(=O)N1C`, the IC50 in assay [1] came out at 6050 nM; in assay [2] it was 47 nM.

What is called IC50 is the concentration that inhibits the measured activity by half. Low readings indicate greater potency, high ones weaker potency.

(Values after ChEMBL document CHEMBL1136490, “Synthesis of non-immunosuppressive cyclophilin-Binding cyclosporin A derivatives as potential anti-HIV-1 drugs” (Bioorg Med Chem Lett, 2003).)
